The target of series [1] is T1, SERT (Homo sapiens, UniProt P31645). As to the kind of experiment: [3H]5-HT uptake to human platelets.
Series [2] concerns the target T1, SERT. As to the kind of experiment: [3H]paroxetine binding assay to human platelet membranes.
The target in series [3] is T2, DAT (Oryctolagus cuniculus, UniProt Z9V7K4Q734). The conditions noted are these: rabbit striatal membranes; tested as hydrochloride salts; read-out: [3H]-WIN 35,428, Ki; cited from earlier work.
Series [4] concerns the target T3, NET (Oryctolagus cuniculus, UniProt G1TDF9).
T3 construct: tissue Charles River Laboratories, Inc. (animals); host or cells: cerebral cortex of New Zealand White rabbit
Briefly: [3H]nisoxetine binding assay to rabbit cortical membranes. The protocol: This washing procedure was repeated twice. The resulting pellet was immediately used in the binding assay or frozen at −80 °C until the time of the assay.
Incubation was carried out at 4 °C for 4 h.

Series [5] deals with T4, SERT (Oryctolagus cuniculus, UniProt A0A5F9CLU6). As to conditions: rabbit cortical membranes; tested as hydrochloride salts; cited from earlier work.
T4 sequence (A0A5F9CLU6 1-628): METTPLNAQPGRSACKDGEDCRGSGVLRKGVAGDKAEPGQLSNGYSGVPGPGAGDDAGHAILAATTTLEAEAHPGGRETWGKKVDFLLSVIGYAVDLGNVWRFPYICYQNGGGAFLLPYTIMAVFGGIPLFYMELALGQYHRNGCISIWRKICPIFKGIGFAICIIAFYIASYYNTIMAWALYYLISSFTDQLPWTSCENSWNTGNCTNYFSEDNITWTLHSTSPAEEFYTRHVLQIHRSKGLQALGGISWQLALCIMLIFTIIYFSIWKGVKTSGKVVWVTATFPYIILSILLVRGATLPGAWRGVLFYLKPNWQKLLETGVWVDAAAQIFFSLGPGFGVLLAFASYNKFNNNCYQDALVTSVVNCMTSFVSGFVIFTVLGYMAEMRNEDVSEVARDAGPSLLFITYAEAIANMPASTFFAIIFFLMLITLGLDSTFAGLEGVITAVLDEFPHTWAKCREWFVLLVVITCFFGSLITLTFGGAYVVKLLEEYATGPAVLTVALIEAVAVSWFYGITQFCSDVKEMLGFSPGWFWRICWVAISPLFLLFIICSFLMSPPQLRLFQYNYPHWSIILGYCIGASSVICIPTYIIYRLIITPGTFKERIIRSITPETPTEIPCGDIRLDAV
The target of series [6] is T2, DAT. Briefly: [3H]WIN 35,428 binding assay to rabbit striatal membranes. The conditions noted are these: mean ± SE of three or more experiments, tested as hydrochloride salts. Here is the method: (§1) Membranes used in DAT and SERT binding assays were prepared from frozen rabbit striatum and frontal cortex as previously described.[29]
DAT binding assays were performed using 2 nM [^3H]WIN 35,428 (specificity activity, 84.5 Ci mmol^–1; PerkinElmer Life Science) as previously described by Nencetti et al.[29]

Series [7] addresses T1, SERT. The conditions noted are these: cited from earlier work.
The target in series [8] is NET. As to conditions: cited from earlier work.
Series [9] addresses DAT. As to conditions: binding affinity for human transporters; cited from earlier work.
Series [10] has as its target NET. The conditions noted are these: binding affinity for rat transporter; cited from earlier work.
Series [11] deals with T3, NET. As to conditions: read-out: [3H]nisoxetine, Ki; rabbit cortical membranes; cited from earlier work.
For series [12], the target named is T4, SERT. As to the kind of experiment: [3H]paroxetine binding assay to rabbit cortical membranes. The protocol: as §1
In series [13] the target is SERT. As to conditions: binding affinity for rat transporter; cited from earlier work.
Setting [14] is: rabbit cortical membranes, tested as hydrochloride salts.
Setting [15] is: binding affinity for human transporters.

We go through 21 compounds from publication PMC8015229, “Focus on Human Monoamine Transporter Selectivity. New Human DAT and NET Models, Experimental Validation, and SERT Affinity Exploration” (ACS Chemical Neuroscience, 2020).

Molecules are shown by their SMILES. Like-named read-outs stand apart in the source and are kept apart here.

T1 sequence (P31645 whole entry): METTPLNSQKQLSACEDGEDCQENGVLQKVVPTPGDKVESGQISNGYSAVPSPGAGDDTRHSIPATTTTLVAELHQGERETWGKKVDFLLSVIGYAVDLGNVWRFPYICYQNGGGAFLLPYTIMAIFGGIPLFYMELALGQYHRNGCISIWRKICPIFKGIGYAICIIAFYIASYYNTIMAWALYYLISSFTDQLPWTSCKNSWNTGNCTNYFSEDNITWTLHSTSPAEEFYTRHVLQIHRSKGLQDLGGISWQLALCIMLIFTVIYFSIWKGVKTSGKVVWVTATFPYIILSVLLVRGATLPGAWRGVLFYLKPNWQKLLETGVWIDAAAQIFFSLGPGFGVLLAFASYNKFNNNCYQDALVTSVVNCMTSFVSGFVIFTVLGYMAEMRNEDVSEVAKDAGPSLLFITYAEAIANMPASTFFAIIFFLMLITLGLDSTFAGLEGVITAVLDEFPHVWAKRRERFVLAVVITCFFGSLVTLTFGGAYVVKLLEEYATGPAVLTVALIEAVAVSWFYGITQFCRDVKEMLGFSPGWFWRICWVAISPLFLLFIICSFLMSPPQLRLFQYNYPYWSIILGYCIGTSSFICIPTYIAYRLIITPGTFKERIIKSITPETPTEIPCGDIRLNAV
T3 sequence (G1TDF9 1-617): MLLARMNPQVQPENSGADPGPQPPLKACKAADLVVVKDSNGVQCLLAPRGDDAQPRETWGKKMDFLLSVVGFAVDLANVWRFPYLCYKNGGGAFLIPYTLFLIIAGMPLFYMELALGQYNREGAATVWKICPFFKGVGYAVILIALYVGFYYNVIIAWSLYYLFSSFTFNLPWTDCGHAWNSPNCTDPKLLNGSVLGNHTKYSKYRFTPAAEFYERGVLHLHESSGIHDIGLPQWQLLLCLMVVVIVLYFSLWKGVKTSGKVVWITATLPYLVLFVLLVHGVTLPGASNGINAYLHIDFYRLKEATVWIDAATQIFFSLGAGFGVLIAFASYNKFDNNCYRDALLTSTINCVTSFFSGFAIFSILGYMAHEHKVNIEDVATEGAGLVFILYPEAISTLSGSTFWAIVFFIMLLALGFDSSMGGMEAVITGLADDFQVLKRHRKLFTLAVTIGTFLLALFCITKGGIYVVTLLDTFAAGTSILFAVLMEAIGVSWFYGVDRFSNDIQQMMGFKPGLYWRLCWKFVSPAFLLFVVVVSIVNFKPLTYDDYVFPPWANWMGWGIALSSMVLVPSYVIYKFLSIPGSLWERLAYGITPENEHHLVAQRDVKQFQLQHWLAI
T2 sequence (Z9V7K4Q734 1-627): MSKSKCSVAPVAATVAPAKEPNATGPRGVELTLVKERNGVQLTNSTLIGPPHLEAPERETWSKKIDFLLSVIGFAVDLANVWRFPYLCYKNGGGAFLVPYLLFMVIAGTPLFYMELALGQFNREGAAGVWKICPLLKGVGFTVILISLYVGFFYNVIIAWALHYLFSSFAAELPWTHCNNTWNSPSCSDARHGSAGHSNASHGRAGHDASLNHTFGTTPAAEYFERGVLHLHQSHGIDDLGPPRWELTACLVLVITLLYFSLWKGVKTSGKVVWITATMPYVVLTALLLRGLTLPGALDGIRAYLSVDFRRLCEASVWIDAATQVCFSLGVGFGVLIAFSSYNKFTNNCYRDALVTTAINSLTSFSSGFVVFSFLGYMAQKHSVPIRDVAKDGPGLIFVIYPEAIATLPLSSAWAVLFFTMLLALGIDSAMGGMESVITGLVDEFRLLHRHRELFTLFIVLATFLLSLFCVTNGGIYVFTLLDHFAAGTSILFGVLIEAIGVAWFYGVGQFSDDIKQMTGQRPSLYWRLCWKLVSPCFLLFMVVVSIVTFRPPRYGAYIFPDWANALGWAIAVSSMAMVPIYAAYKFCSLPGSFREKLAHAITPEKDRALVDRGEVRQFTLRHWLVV

`Cl.FC(F)(F)c1ccc(COC2(c3ccc(C(F)(F)F)cc3)CCNCC2)cc1` [21b, 4-((4-(Trifluoromethyl)benzyl)oxy)-4-(4-(trifluoromethyl)phenyl)piperidine Hydrochloride] came in with a melting point of 189 to 190 °C. In addition, at SERT [1], the IC50 came to 4.2 ± 0.4 nM and the affinity corresponds to a Ki of 2.77 nM. This compound also returned a Ki at SERT [2] of 5.6 ± 0.52 nM. Besides, the Ki on DAT [3] was > 100000 nM. Also, the Ki at NET [4] (setting [14]) is > 10000 nM. Moreover, the “[3H]paroxetine, Ki” value at SERT [5] is on record as “picomolar range”.
In the case of `Cl.Fc1ccc(COC2(c3ccc(C(F)(F)F)cc3)CCNCC2)cc1` [21a, 4-((4-Fluorobenzyl)oxy)-4-(4-(trifluoromethyl)phenyl)piperidine Hydrochloride], the melting point is 261 °C (dec.). In addition, the Ki on DAT [6] is > 100000 nM. For the same compound, the Ki at NET [4] is > 10000 nM.
For `Cl.Fc1ccc(C2(OCc3ccccc3F)CCNCC2)cc1` [20c, 4-((2-Fluorobenzyl)oxy)-4-(4-fluorophenyl)piperidine Hydrochloride], the melting point was determined as 202 °C. Moreover, the Ki on DAT [6] was > 100000 nM. Moreover, the Ki at NET [4] (setting [14]) worked out at 400 nM.
Take `c1ccc2c(CCC3CCNCC3)c[nH]c2c1` [compound 14, indalpine]: on SERT [7] (setting [15]), the “SERT pKi exp” value is reported as 8.76. Besides, at NET [8] (setting [15]), the “NET pKi exp” value is 6.29. At DAT [9], the “DAT pKi exp” value is reported as 6.
In the case of `CNCCC(Oc1ccccc1OC)c1ccccc1` (stereo not drawn) [compound 8, nisoxetine], on NET [10], the “NET pKi exp” value is listed as 9.34.
With `CNCC[C@@H](Oc1ccccc1C)c1ccccc1` [compound 6, atomoxetine], the “DAT pKi exp” value on DAT [9] was 5.8.
Take `COC(=O)[C@H]1[C@@H](c2ccc(Cl)cc2)C[C@@H]2CC[C@H]1N2C` [compound 9, RTI-31]: the “NET pKi exp” value at NET [8] is on record as 7.4. The “DAT pKi exp” value on DAT [9] was 8.57.
In the case of `Fc1ccc([C@@H]2CCNC[C@H]2COc2ccc3c(c2)OCO3)cc1` [compound 1, paroxetine], the Ki at NET [11] was 80 ± 1 nM.
As for `c1ccc(CCCN2CCN(CCOC(c3ccccc3)c3ccccc3)CC2)cc1` [compound 13, GBR-12935], the “NET pKi exp” value at NET [8] (setting [15]) was 6.2.
In the case of `COC(=O)[C@H]1[C@@H](c2ccc(I)cc2)C[C@@H]2CC[C@H]1N2C` [compound 10, RTI-55], the “SERT pKi exp” value at SERT [7] is on record as 8.4. Moreover, at NET [8], the “NET pKi exp” value is on record as 7.7. Further, at DAT [9], the “DAT pKi exp” value is 8.41.
In the case of `Cl.Fc1ccc(C2(OCc3ccc(C(F)(F)F)cc3)CCNCC2)cc1` [compound 20b, 4-(4-Fluorophenyl)-4-((4-(trifluoromethyl)benzyl)oxy)piperidine Hydrochloride], the melting point is 184 to 185 °C. Besides, the “potency as inhibitor of [3H]paroxetine binding relative to unlabeled paroxetine” value at SERT [12] is ~10 fold. In addition, on SERT [1], the IC50 is 0.13 ± 0.01 nM and the Ki turned out to be 0.08 nM. Further, the “type of inhibition of [3H]5-HT uptake” value at SERT [1] (human platelets, Lineweaver-Burk plot, Vmax unchanged, Km changed) is “competitive”. This compound also showed a Ki on SERT [2] of 0.17 ± 0.02 nM. Besides, on DAT [3], the inhibitory constant (Ki) was > 100000 nM. At NET [4] (setting [14]), the Ki turned out to be 10000 nM. Also, the “[3H]paroxetine, Ki” value at SERT [5] was “picomolar range”.
Turning to `Cl.Fc1ccccc1COC1(c2ccc(C(F)(F)F)cc2)CCNCC1` [21c, 4-((2-Fluorobenzyl)oxy)-4-(4-(trifluoromethyl)phenyl)piperidine Hydrochloride], the melting point was 210 °C (dec.). Also, the Ki on DAT [6] came to 11100 nM. For the same compound, the inhibition constant (Ki) on NET [4] (setting [14]) stood at 2070 nM.
For the compound `CCOc1ccccc1OCC1CNCCO1` (stereo not drawn) [compound 16, viloxazine], the “NET pKi exp” value on NET [8] is given as 6.81. Moreover, the “DAT pKi exp” value on DAT [9] is recorded as 5.
As for `COCCCC/C(=N\OCCN)c1ccc(C(F)(F)F)cc1` [compound 11, fluvoxamine], the “DAT pKi exp” value at DAT [9] is recorded as 5.03.
Compound `Cl.Fc1ccc(COC2(c3ccc(F)cc3)CCNCC2)cc1` [20a, 4-((4-Fluorobenzyl)oxy)-4-(4-fluorophenyl)piperidine Hydrochloride] returned a melting point of 158 to 159 °C. In addition, at DAT [6], the Ki was > 100000 nM. Also, the Ki at NET [4] (setting [14]) was found to be 520 nM.
Turning to `Cl.FC(F)(F)c1ccc(C2(OCc3ccc4c(c3)OCO4)CCNCC2)cc1` [21d, 4-(Benzo[d][1,3]dioxol-5-ylmethoxy)-4-(4-(trifluoromethyl)phenyl)piperidine Hydrochloride], half-maximal inhibition at SERT [1] (IC50) required 4.9 ± 0.5 nM. The Ki at SERT [1] was 3.26 nM; on SERT [2], 8.72 ± 0.93 nM; at DAT [3] it was 11200 nM; on NET [4] (setting [14]) it was 2450 nM. Besides, the “[3H]paroxetine, Ki” value on SERT [5] is recorded as “picomolar range”.
On to `COc1ccc(OC[C@H]2CN(C)CC[C@@H]2c2ccccc2)cc1` [compound 4, femoxetine], for which the “NET pKi exp” value on NET [8] (setting [15]) is reported as 6.12. Moreover, on DAT [9], the “DAT pKi exp” value is 5.7.
Take `Cl.Fc1ccc(C2(OCc3ccc4c(c3)OCO4)CCNCC2)cc1` [20d, 4-(Benzo[D][1,3]dioxol-5-ylmethoxy)-4-(4-fluorophenyl)piperidine Hydrochloride]: the “potency as inhibitor of [3H]paroxetine binding relative to unlabeled paroxetine” value at SERT [12] was ~10 fold. The compound further had a half-inhibitory concentration (IC50) against SERT [1] of 2.64 ± 0.3 nM. In addition, the Ki was 1.75 nM at SERT [1], 1.71 ± 0.15 nM at SERT [2], > 100000 nM at DAT [3] and 1740 nM on NET [4] (setting [14]). At SERT [5], the “[3H]paroxetine, Ki” value was “picomolar range”.
On to `CN(C)C/C=C(/c1ccc(Br)cc1)c1cccnc1` [compound 18, zimelidine], for which the “DAT pKi exp” value at DAT [9] is on record as 4.93.
As to `CN1[C@H]2CC[C@@H]1[C@@H](C(=O)N1CCCC1)[C@@H](c1ccc(I)cc1)C2` [compound 17, RTI-229], at SERT [7], the “SERT pKi exp” value is listed as 6.8. In addition, the “NET pKi exp” value on NET [8] (setting [15]) is 6.22.
On to `CN1C2CCC1C(C(=O)Oc1ccccc1)C(c1ccc(Cl)cc1)C2` (stereo not drawn) [compound 19, RTI-113], for which, on SERT [13], the “SERT pKi exp” value is 6.67. For the same compound, the “NET pKi exp” value on NET [10] is recorded as 5.75.
